Measured values taken from patent US20060241177A1, “Novel compounds, pharmaceutical compositions containing same, and methods of use for same” (priority 2002, published 2006).

How the values were obtained:
[1] = system: HCT-116 human colon cancer xenografts; assay: In vivo anti-tumor test, HCT-116 subcutaneous flank xenografts; parameters: species or system nu/nu female mice; settings: 10 mg/kg i.p. repeated, 11 treated animals, day 10, from repeated i.p. injection
Method: In Vivo Testing for Anti-Tumor Activity
Subcutaneous flank xenografts of the human colon cancer cell line, HCT-116 in nu/nu female mice (Harlan) were used to study the anti-tumor effects of Compound 1 in vivo. All animal experiments complied with institutional animal care guidelines. 10^7 HCT-116 cells (˜0.1 ml packed cells) were xenografted from culture in DMEM supplemented with 10% FBS into […]. Treatment began when measurable tumors developed about 3 days after inoculation. Compound 1 (10 mg/kg) was diluted into 40 μl DMSO and treated intraperitoneally (i.p.) 11 animals received JMM-III-231 10 mg/kg, i.p., at days indicated by arrows, and 11 received DMSO control. Tumors were measured on days indicated. […] Error bars represent standard error of the mean.

[2] = molecular target: rat liver acyl-CoA synthetase; settings: Tomoda et al. 1987; Omura et al. 1986; read-out: 50% inhibition of rat liver acyl-CoA synthetase; cited from earlier work
Raji cells = settings: Tomoda et al. 1991; cited from earlier work
viral HIV protease = viral HIV protease (Human immunodeficiency virus type 1 group M subtype B, UniProt P04585); settings: Moelling et al. 1990; cited from earlier work

SMILES: C=CCNC(=O)C1C(=C)C(=O)O[C@H]1CCCCCCCC (mixture of isomers) [Compound 1, (±)-α-Methylene-γ-butyrolactone-5-octyl-4-allyl amide]
- Death of treated mice in xenograft study [1]: One Compound 1 treated mouse died on day 10

SMILES: CCCC=CCC=CC=CC=NN=NO [Triacsin C, 1-hydroxy-3-(E, E, E-2′,4′,7′-undecatrienylidine) triazene]
- IC50 [2]: 8.7 µM
- concentration causing growth inhibition in Raji cells (Raji cells): 1.0 µM

SMILES: C/C=C/C/C=C/CCC(=O)[C@H]1O[C@H]1C(N)=O [cerulenin, (2S,3R)-2,3-epoxy-4-oxo-7,10 dodecadienoyl amide]
- concentration for inhibition of viral HIV protease (viral HIV protease): 5 mg/mL
